In US20140271606A1, “METHODS OF USING ADENOSINE RECEPTOR ANTAGONISTS FOR TREATING BLEEDING DISORDERS” (Bayer HealthCare LLC, priority 2013, published 2014):

Experiments:
Hemophilia A mice = assay: Tail cut blood loss in Hemophilia A mice; assay type: in vivo; settings: 30 min bleeding
Experimental: In this Example, the effect of administering an adenosine receptor antagonist on reduction in blood loss in mice with Hemophilia A and Hemophilia B mice was analyzed. Male Hemophilia A or Hemophilia B mice, approximately eight to nine weeks of age and weighing, on average, approximately 25 grams, were used in this Example. The mice were anesthetized with isoflurane and the tails were placed in approximately 37-38° C. warmed 15-ml plastic tubes including 0.9% (by weight) saline for 10 minutes. The tails were then cut at 4 mm from the tip by scalpel and immediately placed back into separate pre-warmed (37-38° C.) 15-ml plastic tubes containing 10 ml of 0.9% (by weight) saline. Each mouse was allowed to bleed freely for 30 minutes. The adenosine 2a and 2b receptor antagonist, 4-(2-[7-Amino-2-(2-furyl)[1,2,4]triazolo[2,3-a][1,3,5]triazin-5-ylamino]ethyl)phenol (commercially available as ZM241385 from Tocris Bioscience, United Kingdom), was used in this Example. In a first sample group, ZM241385 was dissolved in 100% DMSO. In a second sample group, ZM241385 was dissolved in PEG400/ethanol/water (40/10/50 v/v/v). In a third sample group, ZM241385 was dissolved in PEG400/water (60/40 v/v). […] Blood loss was quantified gravimetrically by weighing the tubes before and after blood was collected.

Hemophilia B mice = assay: Tail cut blood loss in Hemophilia B mice; assay type: in vivo; settings: 100 mg/kg intravenous in PEG400/water 60/40, 5 min prior to tail cut, 30 min bleeding, vs excipient (FIG. 4)
Experimental: In this Example, the effect of administering an adenosine receptor antagonist on reduction in blood loss in mice with Hemophilia A and Hemophilia B mice was analyzed. Male Hemophilia A or Hemophilia B mice, approximately eight to nine weeks of age and weighing, on average, approximately 25 grams, were used in this Example. The mice were anesthetized with isoflurane and the tails were placed in approximately 37-38° C. warmed 15-ml plastic tubes including 0.9% (by weight) saline for 10 minutes. The tails were then cut at 4 mm from the tip by scalpel and immediately placed back into separate pre-warmed (37-38° C.) 15-ml plastic tubes containing 10 ml of 0.9% (by weight) saline. Each mouse was allowed to bleed freely for 30 minutes. Nineteen mice having Hemophilia B were injected with the third sample of adenosine receptor antagonist solution by intravenous injection in the amount of 100 mg/kg ZM241385 five minutes prior to the tail cut. Nineteen control mice were treated with 100 μl of PEG400/water (60/40 v/v) without any adenosine receptor antagonist prior to the tail cut to serve as an untreated control. Blood loss was quantified gravimetrically by weighing the tubes before and after blood was collected.

Measured: blood loss

Nc1nc(NCCc2ccc(O)cc2)nc2nc(-c3ccco3)nn12 [ZM241385, 4-(2-[7-Amino-2-(2-furyl)[1,2,4]triazolo[2,3-a][1,3,5]triazin-5-ylamino]ethyl)phenol]
reduced blood loss: Hemophilia A mice; 100 mg/kg intraperitoneal in 100% DMSO, 30 min prior to tail cut, vs excipient (FIG. 2) | Hemophilia A mice; 300 mg/kg intraperitoneal in PEG400/ethanol/water 40/10/50, 30 min prior to tail cut, vs excipient (FIG. 3) | Hemophilia B mice
